Assay results from the NIST ThermoML archive (doi:10.1021/je400709f).

Assay: excess molar enthalpy (molar enthalpy of mixing); xn = mol fraction of the nth substance listed
Details: 298.15 K, 101 kPa, Liquid, Calvet calorimetry

CCCCCCCC[n+]1ccn(C)c1.F[B-](F)(F)F [1-methyl-3-octylimidazolium tetrafluoroborate] + CC(C)O
Details | excess molar enthalpy [kcal/mol]
x1 = 0.139 | 0.337
x1 = 0.142 | 0.342
x1 = 0.144 | 0.348
x1 = 0.148 | 0.354
x1 = 0.151 | 0.36
x1 = 0.154 | 0.366
x1 = 0.158 | 0.373
x1 = 0.162 | 0.379
x1 = 0.165 | 0.386
x1 = 0.17 | 0.392
x1 = 0.173 | 0.397
x1 = 0.176 | 0.402
x1 = 0.179 | 0.406
x1 = 0.183 | 0.412
x1 = 0.186 | 0.417
x1 = 0.19 | 0.422
x1 = 0.194 | 0.428
x1 = 0.198 | 0.433
x1 = 0.202 | 0.439
x1 = 0.207 | 0.445
x1 = 0.212 | 0.452
x1 = 0.216 | 0.459
x1 = 0.221 | 0.467
x1 = 0.227 | 0.475
x1 = 0.232 | 0.484
x1 = 0.238 | 0.493
x1 = 0.244 | 0.502
x1 = 0.251 | 0.511
x1 = 0.258 | 0.528
x1 = 0.265 | 0.54
x1 = 0.273 | 0.552
x1 = 0.281 | 0.565
x1 = 0.29 | 0.578
x1 = 0.295 | 0.587
x1 = 0.301 | 0.597
x1 = 0.307 | 0.606
x1 = 0.314 | 0.614
x1 = 0.32 | 0.624
x1 = 0.327 | 0.633
x1 = 0.335 | 0.641
x1 = 0.342 | 0.65
x1 = 0.35 | 0.658
x1 = 0.359 | 0.665
x1 = 0.367 | 0.672
x1 = 0.377 | 0.677
x1 = 0.386 | 0.681
x1 = 0.396 | 0.683
x1 = 0.407 | 0.684
x1 = 0.418 | 0.683
x1 = 0.43 | 0.682
x1 = 0.443 | 0.68
x1 = 0.456 | 0.677
x1 = 0.471 | 0.672
x1 = 0.486 | 0.666
x1 = 0.502 | 0.659
x1 = 0.519 | 0.65
x1 = 0.538 | 0.638
x1 = 0.558 | 0.625
x1 = 0.566 | 0.619
x1 = 0.575 | 0.612
x1 = 0.584 | 0.604
x1 = 0.593 | 0.596
x1 = 0.602 | 0.587
x1 = 0.612 | 0.578
x1 = 0.622 | 0.567
x1 = 0.632 | 0.557
x1 = 0.643 | 0.545
x1 = 0.654 | 0.533
x1 = 0.666 | 0.52
x1 = 0.678 | 0.506
x1 = 0.69 | 0.491
x1 = 0.703 | 0.476
x1 = 0.716 | 0.459
x1 = 0.73 | 0.441
x1 = 0.744 | 0.421
x1 = 0.759 | 0.401
x1 = 0.775 | 0.378
x1 = 0.791 | 0.354
x1 = 0.808 | 0.329
x1 = 0.825 | 0.301
x1 = 0.844 | 0.273
x1 = 0.863 | 0.241
x1 = 0.883 | 0.208
x1 = 0.904 | 0.171
x1 = 0.927 | 0.134
x1 = 0.95 | 0.0913
x1 = 0.974 | 0.048

CCCCCCCC[n+]1ccn(C)c1.F[B-](F)(F)F [1-methyl-3-octylimidazolium tetrafluoroborate] + CCO
Details | excess molar enthalpy [kcal/mol]
x1 = 0.135 | 0.382
x1 = 0.137 | 0.386
x1 = 0.14 | 0.391
x1 = 0.143 | 0.396
x1 = 0.146 | 0.401
x1 = 0.149 | 0.406
x1 = 0.152 | 0.411
x1 = 0.155 | 0.415
x1 = 0.159 | 0.421
x1 = 0.162 | 0.426
x1 = 0.166 | 0.431
x1 = 0.17 | 0.437
x1 = 0.174 | 0.442
x1 = 0.178 | 0.448
x1 = 0.183 | 0.454
x1 = 0.188 | 0.46
x1 = 0.193 | 0.466
x1 = 0.198 | 0.472
x1 = 0.204 | 0.479
x1 = 0.209 | 0.486
x1 = 0.216 | 0.494
x1 = 0.222 | 0.502
x1 = 0.23 | 0.51
x1 = 0.237 | 0.519
x1 = 0.242 | 0.527
x1 = 0.247 | 0.534
x1 = 0.253 | 0.542
x1 = 0.259 | 0.55
x1 = 0.264 | 0.557
x1 = 0.271 | 0.565
x1 = 0.277 | 0.572
x1 = 0.284 | 0.579
x1 = 0.291 | 0.586
x1 = 0.299 | 0.592
x1 = 0.307 | 0.598
x1 = 0.315 | 0.603
x1 = 0.324 | 0.608
x1 = 0.334 | 0.611
x1 = 0.344 | 0.614
x1 = 0.354 | 0.617
x1 = 0.365 | 0.619
x1 = 0.377 | 0.621
x1 = 0.39 | 0.622
x1 = 0.404 | 0.622
x1 = 0.419 | 0.621
x1 = 0.435 | 0.619
x1 = 0.452 | 0.614
x1 = 0.47 | 0.608
x1 = 0.49 | 0.601
x1 = 0.499 | 0.597
x1 = 0.507 | 0.593
x1 = 0.517 | 0.588
x1 = 0.526 | 0.583
x1 = 0.536 | 0.577
x1 = 0.546 | 0.57
x1 = 0.556 | 0.563
x1 = 0.567 | 0.555
x1 = 0.579 | 0.546
x1 = 0.591 | 0.537
x1 = 0.603 | 0.526
x1 = 0.616 | 0.515
x1 = 0.629 | 0.503
x1 = 0.643 | 0.489
x1 = 0.658 | 0.475
x1 = 0.673 | 0.458
x1 = 0.689 | 0.441
x1 = 0.706 | 0.422
x1 = 0.724 | 0.401
x1 = 0.743 | 0.379
x1 = 0.762 | 0.354
x1 = 0.783 | 0.327
x1 = 0.805 | 0.297
x1 = 0.828 | 0.266
x1 = 0.852 | 0.23
x1 = 0.878 | 0.193
x1 = 0.906 | 0.15
x1 = 0.935 | 0.106
x1 = 0.966 | 0.0557
